# Data from BindingDB's records for PubMed 38266553 (China Pharmaceutical University).
# Experiments:
# [1] = target: Prostaglandin G/H synthase 2 (Homo sapiens) (UniProt P35354); assay: Inhibition of COX-2 (unknown origin) using arachidonic acid as substrate preincubated for 10 mins followed by substrate addition and measured after 5 mins by fluorescence based analysis
# [2] = target: Prostaglandin G/H synthase 1 (Homo sapiens) (UniProt P23219); assay: Inhibition of COX-1 (unknown origin) using arachidonic acid as substrate preincubated for 10 mins followed by substrate addition and measured after 5 mins by fluorescence based analysis
# Prostaglandin G/H synthase 2 (Homo sapiens), sequence (P35354 whole entry, looked up): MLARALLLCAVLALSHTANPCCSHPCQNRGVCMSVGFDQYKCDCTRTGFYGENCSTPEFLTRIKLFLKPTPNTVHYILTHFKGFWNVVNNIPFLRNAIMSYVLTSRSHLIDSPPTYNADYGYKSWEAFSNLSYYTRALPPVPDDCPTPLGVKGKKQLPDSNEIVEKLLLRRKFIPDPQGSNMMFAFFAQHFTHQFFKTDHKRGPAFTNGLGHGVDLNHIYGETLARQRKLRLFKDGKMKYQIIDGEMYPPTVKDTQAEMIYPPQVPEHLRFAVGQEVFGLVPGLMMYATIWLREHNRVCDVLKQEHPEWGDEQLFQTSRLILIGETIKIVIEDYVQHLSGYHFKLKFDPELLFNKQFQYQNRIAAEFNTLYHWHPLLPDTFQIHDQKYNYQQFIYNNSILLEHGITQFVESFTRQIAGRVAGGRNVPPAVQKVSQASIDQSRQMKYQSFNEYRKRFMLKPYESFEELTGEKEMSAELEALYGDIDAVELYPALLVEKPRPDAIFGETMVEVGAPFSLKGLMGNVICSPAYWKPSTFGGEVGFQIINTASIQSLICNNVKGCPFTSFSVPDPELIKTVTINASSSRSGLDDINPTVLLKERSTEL
Compound,IC50 [1] [nM],IC50 [2] [nM]
Cc1[nH]n(-c2ccccc2)c(=O)c1Cc1ccc(C(=O)NO)cc1,75,5730
CCc1nn(-c2ccccc2)c(O)c1Cc1ccc(C(=O)NO)cc1,134,321
CC(C)(C)c1nn(-c2ccccc2)c(O)c1Cc1ccc(C(=O)NO)cc1,144,1290
Cc1nn(-c2cccc(Cl)c2)c(O)c1Cc1ccc(C(=O)NO)cc1,58,1360
